Laboratory results from ChEMBL document CHEMBL1909046, “DrugMatrix in vitro pharmacology data”.

Key:
[1] = DRUGMATRIX: Glutamate, Kainate radioligand binding (ligand: [3H] Kainic acid); type: cell membranes, Rattus norvegicus, Wistar, Brain, Membrane; details: Not Active = under 50% inhibition at 10 µM
[2] = DRUGMATRIX: beta-Lactamase enzyme inhibition (substrate: Nitrocefin); design: species or system Bacillus cereus; details: Not Active = under 50% inhibition at 10 µM
[3] = target: Insulin receptor (Rattus norvegicus, UniProt P15127); type: cell membranes, Wistar, Liver, Membrane; also: in other assays of this panel Not Active means under 50% inhibition at 10 µM
[4] = target: T1, Cathepsin G (Homo sapiens, UniProt P08311); type: tissue-based; details: neutrophil;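 also: inhibition of Cathepsin G enzyme activity, tested on an AMC-conjugated peptide substrate; in other assays of this panel Not Active means under 50% inhibition at 10 µM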
T1 sequence (P08311 whole entry): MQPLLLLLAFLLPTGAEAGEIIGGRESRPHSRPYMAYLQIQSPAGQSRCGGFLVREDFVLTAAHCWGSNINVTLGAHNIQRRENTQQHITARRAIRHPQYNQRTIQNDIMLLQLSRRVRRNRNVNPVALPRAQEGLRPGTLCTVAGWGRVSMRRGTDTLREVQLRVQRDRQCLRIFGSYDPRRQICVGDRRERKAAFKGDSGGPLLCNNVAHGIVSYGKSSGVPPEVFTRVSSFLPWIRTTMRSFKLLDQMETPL

[5] = target: D(1A) dopamine receptor (Homo sapiens, UniProt P21728); assay: DRUGMATRIX: Dopamine D1 radioligand binding (ligand: [3H] SCH-23390); type: cell membranes, Membrane; details: cho; Not Active = under 50% inhibition at 10 µM
[6] = target: T2, Thromboxane-A synthase (Homo sapiens, UniProt P24557); assay: biochemical; type: tissue-based, Platelet; details: platelet;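 also: enzyme inhibition assay with PGH2 supplied as substrate; in other assays of this panel Not Active means under 50% inhibition at 10 µM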
T2 sequence (P24557 whole entry): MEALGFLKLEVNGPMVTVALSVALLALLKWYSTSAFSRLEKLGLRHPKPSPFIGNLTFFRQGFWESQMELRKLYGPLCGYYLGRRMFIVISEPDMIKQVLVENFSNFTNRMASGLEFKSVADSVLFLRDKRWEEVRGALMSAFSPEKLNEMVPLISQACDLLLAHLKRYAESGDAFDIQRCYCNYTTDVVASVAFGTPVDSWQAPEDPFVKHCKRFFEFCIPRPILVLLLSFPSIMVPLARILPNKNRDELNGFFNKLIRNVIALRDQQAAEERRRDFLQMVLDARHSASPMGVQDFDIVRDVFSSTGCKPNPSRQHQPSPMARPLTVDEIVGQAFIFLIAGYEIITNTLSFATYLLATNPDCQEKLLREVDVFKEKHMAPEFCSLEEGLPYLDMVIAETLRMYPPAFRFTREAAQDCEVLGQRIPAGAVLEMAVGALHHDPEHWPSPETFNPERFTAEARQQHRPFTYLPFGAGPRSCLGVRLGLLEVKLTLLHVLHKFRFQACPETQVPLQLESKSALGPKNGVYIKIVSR

[7] = target: Mitogen-activated protein kinase 14 (Homo sapiens, UniProt Q16539); design: species or system Escherichia coli;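 also: inhibition of p38alpha enzyme activity in a biochemical kinase assay, with myelin basic protein serving as substrate; in other assays of this panel Not Active means under 50% inhibition at 10 µM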
[8] = DRUGMATRIX: Platelet-Derived Growth Factor (PDGF) radioligand binding (ligand: [125I] PDGF); type: cell-based; details: nih3t3; Not Active = under 50% inhibition at 10 µM
[9] = target: Cytochrome P450 2E1 (Homo sapiens, UniProt P05181); details: bti-tn-5b1-4; also: in other assays of this panel Not Active means under 50% inhibition at 10 µM
Cytochrome P450 2E1, sequence (P05181 whole entry): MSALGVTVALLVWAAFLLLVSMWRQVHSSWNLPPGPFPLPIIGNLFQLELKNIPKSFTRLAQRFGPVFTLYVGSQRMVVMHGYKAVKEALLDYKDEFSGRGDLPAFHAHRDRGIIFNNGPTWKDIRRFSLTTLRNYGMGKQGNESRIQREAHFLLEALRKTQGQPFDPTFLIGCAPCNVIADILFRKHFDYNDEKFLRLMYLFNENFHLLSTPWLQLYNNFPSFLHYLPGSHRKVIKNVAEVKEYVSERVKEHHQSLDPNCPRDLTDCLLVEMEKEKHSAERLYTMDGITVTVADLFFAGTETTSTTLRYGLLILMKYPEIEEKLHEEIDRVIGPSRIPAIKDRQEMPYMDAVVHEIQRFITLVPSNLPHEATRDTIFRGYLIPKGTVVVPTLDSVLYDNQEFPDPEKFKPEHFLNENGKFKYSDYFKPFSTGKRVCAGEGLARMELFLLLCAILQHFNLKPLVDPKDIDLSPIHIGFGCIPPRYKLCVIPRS

D(1A) dopamine receptor, sequence (P21728 whole entry): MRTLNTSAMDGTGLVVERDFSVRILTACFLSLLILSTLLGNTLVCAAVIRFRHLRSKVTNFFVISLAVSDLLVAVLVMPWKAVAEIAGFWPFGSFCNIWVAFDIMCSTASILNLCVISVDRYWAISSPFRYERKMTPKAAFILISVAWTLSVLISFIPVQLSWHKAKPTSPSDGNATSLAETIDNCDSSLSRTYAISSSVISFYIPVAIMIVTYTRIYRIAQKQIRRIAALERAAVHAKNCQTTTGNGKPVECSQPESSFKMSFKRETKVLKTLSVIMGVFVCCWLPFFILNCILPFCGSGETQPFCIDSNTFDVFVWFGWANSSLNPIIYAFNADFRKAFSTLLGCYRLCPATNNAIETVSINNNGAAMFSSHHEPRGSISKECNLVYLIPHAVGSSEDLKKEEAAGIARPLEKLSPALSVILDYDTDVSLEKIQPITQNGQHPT
Mitogen-activated protein kinase 14, sequence (Q16539 whole entry): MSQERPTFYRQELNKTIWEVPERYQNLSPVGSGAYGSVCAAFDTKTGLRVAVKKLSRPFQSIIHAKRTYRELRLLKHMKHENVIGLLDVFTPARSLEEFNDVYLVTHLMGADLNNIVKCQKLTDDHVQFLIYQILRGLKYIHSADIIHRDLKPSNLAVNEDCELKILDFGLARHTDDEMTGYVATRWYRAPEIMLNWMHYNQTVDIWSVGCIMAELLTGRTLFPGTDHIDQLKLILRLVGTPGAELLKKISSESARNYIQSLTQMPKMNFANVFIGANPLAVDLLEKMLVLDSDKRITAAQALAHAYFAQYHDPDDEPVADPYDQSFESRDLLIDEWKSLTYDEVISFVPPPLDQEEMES
Insulin receptor, sequence (P15127 27-759 limits assumed): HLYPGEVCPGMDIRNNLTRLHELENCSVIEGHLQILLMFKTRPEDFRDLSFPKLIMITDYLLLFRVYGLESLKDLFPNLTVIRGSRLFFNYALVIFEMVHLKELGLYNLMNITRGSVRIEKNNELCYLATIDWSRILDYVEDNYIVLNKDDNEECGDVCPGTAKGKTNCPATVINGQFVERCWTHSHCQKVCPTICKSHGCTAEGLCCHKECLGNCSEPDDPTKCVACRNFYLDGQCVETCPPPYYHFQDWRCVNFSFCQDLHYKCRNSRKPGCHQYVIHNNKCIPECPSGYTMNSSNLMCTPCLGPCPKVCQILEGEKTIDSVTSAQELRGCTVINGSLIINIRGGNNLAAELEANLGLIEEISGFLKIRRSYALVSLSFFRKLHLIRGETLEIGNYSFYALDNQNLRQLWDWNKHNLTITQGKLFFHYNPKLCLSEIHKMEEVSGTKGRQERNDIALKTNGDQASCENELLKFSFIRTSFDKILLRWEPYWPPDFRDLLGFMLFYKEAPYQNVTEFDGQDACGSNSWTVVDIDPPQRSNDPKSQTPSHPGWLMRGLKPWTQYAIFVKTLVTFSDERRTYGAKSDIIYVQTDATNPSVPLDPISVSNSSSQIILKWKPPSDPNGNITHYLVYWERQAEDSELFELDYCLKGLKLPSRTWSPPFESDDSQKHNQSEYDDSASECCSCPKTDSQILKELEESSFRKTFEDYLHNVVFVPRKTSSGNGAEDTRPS
Insulin receptor, sequence (P15127 764-1383 limits assumed): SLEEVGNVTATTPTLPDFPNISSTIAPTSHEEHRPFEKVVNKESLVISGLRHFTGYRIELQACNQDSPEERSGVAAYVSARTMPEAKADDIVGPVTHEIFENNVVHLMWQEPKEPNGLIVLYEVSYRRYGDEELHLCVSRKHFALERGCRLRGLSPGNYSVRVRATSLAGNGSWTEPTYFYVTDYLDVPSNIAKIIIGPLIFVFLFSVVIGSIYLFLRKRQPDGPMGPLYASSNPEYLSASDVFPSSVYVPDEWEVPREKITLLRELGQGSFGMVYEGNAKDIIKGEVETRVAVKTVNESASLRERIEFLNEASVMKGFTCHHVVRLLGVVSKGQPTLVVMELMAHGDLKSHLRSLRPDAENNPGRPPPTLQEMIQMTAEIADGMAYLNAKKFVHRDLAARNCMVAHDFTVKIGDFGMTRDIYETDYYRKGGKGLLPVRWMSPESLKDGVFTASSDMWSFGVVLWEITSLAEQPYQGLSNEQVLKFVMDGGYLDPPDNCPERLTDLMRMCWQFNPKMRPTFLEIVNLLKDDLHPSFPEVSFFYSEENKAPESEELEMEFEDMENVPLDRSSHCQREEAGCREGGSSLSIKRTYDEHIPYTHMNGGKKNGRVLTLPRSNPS

O=C1CC2(CCCC2)CC(=O)N1CCCCN1CCN(c2ncccn2)CC1 [BUSPIRONE]
Not Active: IC50 [1] | Ki [1] | IC50 [2] | Ki [2] | IC50 [3] | IC50 [4] | IC50 [5] | IC50 [6] | IC50 [7] | IC50 [8] | Ki [8] | IC50 [9] | Ki [9]

COc1cccc2c1C(=O)c1c(O)c3c(c(O)c1C2=O)C[C@@](O)(C(=O)CO)C[C@@H]3O[C@H]1C[C@H](N)[C@@H](O)[C@H](C)O1 [EPIRUBICIN]
Not Active: IC50 [1] | Ki [1] | IC50 [2] | Ki [2] | IC50 [3] | IC50 [4] | IC50 [5] | IC50 [6] | IC50 [7] | IC50 [8] | Ki [8] | IC50 [9] | Ki [9]

C#C[C@]1(O)CC[C@H]2[C@@H]3CCc4cc(OC)ccc4[C@H]3CC[C@@]21C [MESTRANOL]
Not Active: IC50 [1] | Ki [1] | IC50 [2] | Ki [2] | IC50 [3] | IC50 [4] | IC50 [5] | IC50 [6] | IC50 [7] | IC50 [8] | Ki [8] | IC50 [9] | Ki [9]

CC(=O)Nc1ccc(O)cc1 [ACETAMINOPHEN]
Not Active: IC50 [1] | Ki [1] | IC50 [2] | Ki [2] | IC50 [3] | IC50 [4] | IC50 [5] | IC50 [6] | IC50 [7] | IC50 [8] | Ki [8] | IC50 [9] | Ki [9]

CCCCN1CCCCC1C(=O)Nc1c(C)cccc1C.Cl (stereo not given) [BUPIVACAINE HYDROCHLORIDE]
Not Active: IC50 [1] | Ki [1] | IC50 [2] | Ki [2] | IC50 [3] | IC50 [4] | IC50 [5] | IC50 [6] | IC50 [7] | IC50 [8] | Ki [8] | IC50 [9] | Ki [9]

Nc1ccn([C@@H]2CS[C@H](CO)O2)c(=O)n1 [LAMIVUDINE]
Not Active: IC50 [1] | Ki [1] | IC50 [2] | Ki [2] | IC50 [3] | IC50 [4] | IC50 [5] | IC50 [6] | IC50 [7] | IC50 [8] | Ki [8] | IC50 [9] | Ki [9]

COP(=O)(OC)OC=C(Cl)Cl [DICHLORVOS]
Not Active: IC50 [1] | Ki [1] | IC50 [2] | Ki [2] | IC50 [3] | IC50 [4] | IC50 [5] | IC50 [6] | IC50 [7] | IC50 [8] | Ki [8] | IC50 [9] | Ki [9]

CADMIUM DICHLORIDE
Not Active: IC50 [1] | Ki [1] | IC50 [2] | Ki [2] | IC50 [3] | Ki [3] | IC50 [4] | Ki [4] | IC50 [5] | Ki [5] | IC50 [6] | Ki [6] | IC50 [7] | Ki [7] | IC50 [8] | Ki [8] | IC50 [9] | Ki [9]

C[C@](O)(CS(=O)(=O)c1ccc(F)cc1)C(=O)Nc1ccc(C#N)c(C(F)(F)F)c1 [(R)-BICALUTAMIDE]
Not Active: IC50 [1] | Ki [1] | IC50 [2] | Ki [2] | IC50 [3] | IC50 [4] | IC50 [5] | IC50 [6] | IC50 [7] | IC50 [8] | Ki [8] | IC50 [9] | Ki [9]

Cc1nccn1CC1CCc2c(c3ccccc3n2C)C1=O (stereo not given) [ONDANSETRON]
Not Active: IC50 [1] | Ki [1] | IC50 [2] | Ki [2] | IC50 [3] | IC50 [4] | IC50 [5] | IC50 [6] | IC50 [7] | IC50 [8] | Ki [8] | IC50 [9] | Ki [9]

CCOC(=O)[C@H](CCc1ccccc1)N[C@H]1CCc2ccccc2N(CC(=O)O)C1=O [BENAZEPRIL]
Not Active: IC50 [1] | Ki [1] | IC50 [2] | Ki [2] | IC50 [3] | IC50 [4] | IC50 [5] | IC50 [6] | IC50 [7] | IC50 [8] | Ki [8] | IC50 [9] | Ki [9]

CCCCOc1ccc(OCCCN2CCOCC2)cc1 [PRAMOXINE]
Not Active: IC50 [1] | Ki [1] | IC50 [2] | Ki [2] | IC50 [3] | IC50 [4] | IC50 [5] | IC50 [6] | IC50 [7] | IC50 [8] | Ki [8] | IC50 [9] | Ki [9]

COc1cccc2c1C(=O)c1c(O)c3c(c(O)c1C2=O)C[C@@](O)(C(=O)CO)C[C@@H]3O[C@H]1C[C@H](N)[C@H](O)[C@H](C)O1 [DOXORUBICIN]
Not Active: IC50 [1] | Ki [1] | IC50 [2] | Ki [2] | IC50 [3] | IC50 [4] | IC50 [5] | IC50 [6] | IC50 [7] | IC50 [8] | Ki [8] | IC50 [9] | Ki [9]

C[C@H]1C[C@H]2[C@@H]3CCC4=CC(=O)C=C[C@]4(C)[C@@]3(Cl)[C@@H](O)C[C@]2(C)[C@@]1(O)C(=O)CO [BECLOMETHASONE]
Not Active: IC50 [1] | Ki [1] | IC50 [2] | Ki [2] | IC50 [3] | IC50 [4] | IC50 [5] | IC50 [6] | IC50 [7] | IC50 [8] | Ki [8] | IC50 [9] | Ki [9]

CCN(CC)CCOC(=O)c1ccc(N)cc1 [PROCAINE]
Not Active: IC50 [1] | Ki [1] | IC50 [2] | Ki [2] | IC50 [3] | IC50 [4] | IC50 [5] | IC50 [6] | IC50 [7] | IC50 [8] | Ki [8] | IC50 [9] | Ki [9]

O=C(O)Cc1ccccc1Nc1c(Cl)cccc1Cl [DICLOFENAC]
Not Active: IC50 [1] | Ki [1] | IC50 [2] | Ki [2] | IC50 [3] | IC50 [4] | IC50 [5] | IC50 [6] | IC50 [7] | IC50 [8] | Ki [8] | IC50 [9] | Ki [9]

CC(C)[C@H]1CC[C@H](C(=O)N[C@H](Cc2ccccc2)C(=O)O)CC1 [NATEGLINIDE]
Not Active: IC50 [1] | Ki [1] | IC50 [2] | Ki [2] | IC50 [3] | IC50 [4] | IC50 [5] | IC50 [6] | IC50 [7] | IC50 [8] | Ki [8] | IC50 [9] | Ki [9]

Nc1c(CC(=O)O)cccc1C(=O)c1ccc(Br)cc1 [BROMFENAC]
Not Active: IC50 [1] | Ki [1] | IC50 [2] | Ki [2] | IC50 [3] | IC50 [4] | IC50 [5] | IC50 [6] | IC50 [7] | IC50 [8] | Ki [8] | IC50 [9] | Ki [9]

CC(=O)Nc1cccc(O)c1 [METACETAMOL]
Not Active: IC50 [1] | Ki [1] | IC50 [2] | Ki [2] | IC50 [3] | IC50 [4] | IC50 [5] | IC50 [6] | IC50 [7] | IC50 [8] | Ki [8] | IC50 [9] | Ki [9]

COc1ccc2c(c1)c(CC(=O)O)c(C)n2C(=O)c1ccc(Cl)cc1 [INDOMETHACIN]
Not Active: IC50 [1] | Ki [1] | IC50 [2] | Ki [2] | IC50 [3] | IC50 [4] | IC50 [5] | IC50 [6] | IC50 [7] | IC50 [8] | Ki [8] | IC50 [9] | Ki [9]
